In test [1] the target is T1, PI3K alfa (Homo sapiens, UniProt P42336).
T1 construct: His tag (C); made in house; host or cells: baculovirus BV1075; Tn5 (Trichoplusia ni) or TiniPro insect cells
Description: PI3K alpha kinase assay (Kinase-Glo luminescence). The format is biochemical. Particulars: read-out: EPK_PI3Kalfa/IC50. In outline:
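Kinase-Glo luminescence read of ATP remaining after PI3Kα (10 nM) phosphorylates 10 μg/mL bovine liver phosphatidylinositol with 1 μM ATP, pH 7.5 TRIS, 3 mM MgCl2, 0.05% CHAPS; 60 min at room temperature. IC50 from 4-parameter logistic fit over 8 concentrations.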

The test system of test [2] is S6 Ribosomal Protein phosphorylation Ser235/236 in TSC1 null mouse embryo fibroblast (MEF) cells. Briefly: Reverse protein array, S6 Ribosomal Protein phosphorylation in TSC1 null MEF cells. The format is cell-based. Particulars: 1 h, TSC1-/- MEFs, 60 minutes, read-out: p-S6 IC50. In a few lines:
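Phospho-S6 (Ser235/236) was quantified by reverse protein array of cell lysates with a phospho-specific primary antibody. […]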

T1 sequence (P42336 with tags, fused parts or gaps limits assumed): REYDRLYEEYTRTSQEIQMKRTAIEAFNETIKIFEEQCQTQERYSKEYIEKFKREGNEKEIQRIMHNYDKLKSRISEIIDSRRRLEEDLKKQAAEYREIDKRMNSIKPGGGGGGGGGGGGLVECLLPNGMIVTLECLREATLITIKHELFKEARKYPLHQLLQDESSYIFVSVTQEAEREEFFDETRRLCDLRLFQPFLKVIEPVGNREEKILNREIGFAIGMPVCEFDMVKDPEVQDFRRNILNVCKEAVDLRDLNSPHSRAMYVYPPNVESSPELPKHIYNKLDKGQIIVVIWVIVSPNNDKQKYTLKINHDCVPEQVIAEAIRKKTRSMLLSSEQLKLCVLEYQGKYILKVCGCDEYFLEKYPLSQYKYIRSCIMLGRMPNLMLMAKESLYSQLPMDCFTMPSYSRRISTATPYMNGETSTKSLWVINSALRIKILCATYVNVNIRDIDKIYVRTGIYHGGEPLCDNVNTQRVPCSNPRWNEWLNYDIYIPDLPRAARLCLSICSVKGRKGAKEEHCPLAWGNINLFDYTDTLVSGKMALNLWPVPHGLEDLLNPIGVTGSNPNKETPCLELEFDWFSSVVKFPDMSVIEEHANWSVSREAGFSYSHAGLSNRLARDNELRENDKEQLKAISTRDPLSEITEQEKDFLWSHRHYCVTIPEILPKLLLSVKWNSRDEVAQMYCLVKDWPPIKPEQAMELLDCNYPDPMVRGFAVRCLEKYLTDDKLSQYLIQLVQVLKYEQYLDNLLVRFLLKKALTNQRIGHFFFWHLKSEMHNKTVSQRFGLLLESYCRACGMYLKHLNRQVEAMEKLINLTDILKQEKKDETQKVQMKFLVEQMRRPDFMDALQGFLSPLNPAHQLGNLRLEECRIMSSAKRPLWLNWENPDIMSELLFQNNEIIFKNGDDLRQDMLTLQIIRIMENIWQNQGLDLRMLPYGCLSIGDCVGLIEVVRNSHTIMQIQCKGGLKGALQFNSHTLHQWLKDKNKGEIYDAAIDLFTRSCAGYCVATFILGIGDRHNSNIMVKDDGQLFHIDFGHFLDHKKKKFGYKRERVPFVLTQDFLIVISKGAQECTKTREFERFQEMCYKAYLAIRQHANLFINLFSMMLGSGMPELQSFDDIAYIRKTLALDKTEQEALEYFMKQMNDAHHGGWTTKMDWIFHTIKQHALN

On to `CNc1ncc(-c2ccc3ncc4c(c3c2)n(-c2ccc(N3CC(O)C3)nc2C)c(=O)n4C)cc1C(F)(F)F` [Example 29.4, 1-[6-(3-Hydroxy-azetidin-1-yl)-2-methyl-pyridin-3-yl]-3-methyl-8-(6-methylamino-5-trifluoromethyl-pyridin-3-yl)-1,3-dihydro-imidazo[4,5-c]quinolin-2-one], for which the IC50 turned out to be 17 nM in test [1] and 1.7 nM in test [2].

For the compound `COc1cc(-c2ccc3ncc4c(c3c2)n(-c2ccc(N3CC(O)C3)nc2C)c(=O)n4C)cnc1CO` [Example 29.5, 1-[6-(3-Hydroxy-azetidin-1-yl)-2-methyl-pyridin-3-yl]-8-(6-hydroxymethyl-5-methoxy-pyridin-3-yl)-3-methyl-1,3-dihydro-imidazo[4,5-c]quinolin-2-one], the values for the IC50 in test [1] and in test [2] were 31 nM and 39.1 nM, respectively.

With `COc1ncc(-c2ccc3ncc4c(c3c2)n(-c2ccc(N3CC(O)C3)nc2C)c(=O)n4C)c(OC)n1` [Example 29.6, 8-(2,4-Dimethoxy-pyrimidin-5-yl)-1-[6-(3-hydroxy-azetidin-1-yl)-2-methyl-pyridin-3-yl]-3-methyl-1,3-dihydro-imidazo[4,5-c]quinolin-2-one], the IC50 turned out to be 23 nM in test [1] and 5 nM in test [2].

For `CNc1ncc(-c2ccc3ncc4c(c3c2)n(-c2ccc(N3CC[C@H](O)C3)nc2C)c(=O)n4C)cc1F` [Example 32.2, 8-(5-Fluoro-6-methylamino-pyridin-3-yl)-1-[6-((S)-3-hydroxy-pyrrolidin-1-yl)-2-methyl-pyridin-3-yl]-3-methyl-1,3-dihydro-imidazo[4,5-c]quinolin-2-one], the values for the IC50 in test [1] and in test [2] were 44 nM and 1 nM, respectively.

For the compound `COc1ncc(-c2ccc3ncc4c(c3c2)n(-c2ccc(N3CC[C@H](O)C3)nc2C)c(=O)n4C)c(OC)n1` [Example 32.3, 8-(2,4-Dimethoxy-pyrimidin-5-yl)-1-[6-((S)-3-hydroxy-pyrrolidin-1-yl)-2-methyl-pyridin-3-yl]-3-methyl-1,3-dihydro-imidazo[4,5-c]quinolin-2-one], the figures for the IC50 in test [1] and in test [2] were 32 nM and 4 nM, respectively.

As for `CNc1ncc(-c2ccc3ncc4c(c3c2)n(-c2ccc(N3CC[C@H](O)C3)nc2C)c(=O)n4C)cc1C(F)(F)F` [Example 32.5, 1-[6-((S)-3-Hydroxy-pyrrolidin-1-yl)-2-methyl-pyridin-3-yl]-3-methyl-8-(6-methylamino-5-trifluoromethyl-pyridin-3-yl)-1,3-dihydro-imidazo[4,5-c]quinolin-2-one], the IC50 amounted to 9 nM in test [1] and 1 nM in test [2].

For the compound `Cc1nc(N2CC[C@H](O)C2)ccc1-n1c(=O)n(C)c2cnc3ccc(-c4cncc(OC(C)C)c4)cc3c21` [Example 32.8, 1-[6-((S)-3-Hydroxy-pyrrolidin-1-yl)-2-methyl-pyridin-3-yl]-8-(5-isopropoxy-pyridin-3-yl)-3-methyl-1,3-dihydro-imidazo[4,5-c]quinolin-2-one], the IC50 in test [1] is 71 nM; in test [2], 2.2 nM.

Take `Cc1nc(C(F)(F)F)ccc1-n1c(=O)n(C)c2cnc3ccc(-c4cncc(C(C)(C)O)c4)cc3c21` [Example 33.1, 8-[5-(1-Hydroxy-1-methyl-ethyl)-pyridin-3-yl]-3-methyl-1-(2-methyl-6-trifluoromethyl-pyridin-3-yl)-1,3-dihydro-imidazo[4,5-c]quinolin-2-one]: the IC50 in test [1] is 13 nM; in test [2], 2 nM.

Regarding `CCNc1ncc(-c2ccc3ncc4c(c3c2)n(-c2ccc(N3CC[C@@H](O)C3)nc2C)c(=O)n4C)cc1C(F)(F)F` [Example 34.2, 8-(6-Ethylamino-5-trifluoromethyl-pyridin-3-yl)-1-[6-((R)-3-hydroxy-pyrrolidin-1-yl)-2-methyl-pyridin-3-yl]-3-methyl-1,3-dihydro-imidazo[4,5-c]quinolin-2-one], the results for the IC50 in test [1] and in test [2] were 28 nM and 1.9 nM, respectively.

As for `CCNc1ncc(-c2ccc3ncc4c(c3c2)n(-c2ccc(N3CC[C@@H](O)C3)nc2C)c(=O)n4C)cc1COCC` [Example 34.4, 8-(5-Ethoxymethyl-6-ethylamino-pyridin-3-yl)-1-[6-((R)-3-hydroxy-pyrrolidin-1-yl)-2-methyl-pyridin-3-yl]-3-methyl-1,3-dihydro-imidazo[4,5-c]quinolin-2-one], the IC50 in test [1] came to 65.5 nM; in test [2] it was 8 nM.

The record behind these values is patent US20100311714A1, “1H-IMIDAZO[4,5-c]QUINOLINONE COMPOUNDS” (priority 2009, published 2010).
